This note sets out measurements from patent US20160215348A1, “GENE EXPRESSION BIOMARKERS AND THEIR USE FOR DIAGNOSTIC AND PROGNOSTIC APPLICATION IN PATIENTS POTENTIALLY IN NEED OF HDAC INHIBITOR TREATMENT” (4SC AG, priority 2013, published 2016).

Molecules are shown by their SMILES.

One assay concerns HDAC. The experiment in a line: Cellular HDAC enzyme activity in patients' whole blood (Boc-K(Ac)-AMC), inhibition vs pre-dose. In kind it is in vivo, human. The following applies: SAPHIRE. How it is done:
Samples were obtained and gene expressions were determined with the methods as described herein below. Whole blood was incubated for 2 h at 37° C. with fluorescent HDAC substrate Boc-K(Ac)-AMC. After the lysis of erythrocytes remaining cells were stored at −80° C. HDAC activity was determined by fluorimetric analysis using a FLUOstar OPTIMA plate reader, where cells were incubated with a defined developer reagent (containing trypsin and lysis buffer) which leads to cell lysis and generation of a fluorophore from the deacetylated substrate. Finally inhibition of HDAC activity compared to pre-dose levels was calculated.
• Labelled 15 ml tubes (e.g. PP tubes, e.g. Falcon® tubes) • Labelled 2 ml tubes (e.g. PP tubes) • Erythrocyte Lysis buffer (Qiagen 79217) (stored at RT until use) • 40 mM Boc-K(Ac) AMC Stock in DMSO (Bachem: 1-1875) (stored at −80° C. until use)
• 1) Add 1 ml citrate blood into a 15 ml labelled tube. • 2) Add 5 μl 40 mM Boc-K(Ac) AMC to 1 ml citrate blood (final concentration: 200 μM Boc-K(Ac) AMC). • 3) Incubate for 2 h in an incubator (37° C.). • 4) Add 5 fold volume (5 ml) of 4° C. cold erythrocyte lysis buffer (EL buffer, Qiagen 79217). • 5) Mix briefly on a shaker. • 6) Incubate on ice for at least 15 min; mix two times in between on a plate shaker. • 7) Add 7 ml of 4° C. […]

The next assay relates to 18S. The experiment in a line: Gene expression in peripheral blood of healthy donors treated ex vivo. The conditions noted are these: standardized to 0 h. The assay is classed as cell-based, human. On the procedure:
(§1) Hatched columns relate to blood, black columns relate to HepG2 cells, white boxes relate to HT 29 cells. Values are standardized to the value at 0 h.
(§2) Samples were obtained and gene expressions were determined with the methods as described herein below. The results are shown in below table 3 and FIGS. 2 and 3
(§3) The above values represent a mean value which was determined on the basis of 2 biological replicates, for each of which 3 technical replicates were prepared. […] The level of gene expression determined in peripheral blood samples can be correlated with a certain level of activity of HDAC in the diseased cells, e.g. by applying an appropriate conversion factor or conversion table, which may be determined for each specific disease, and/or patient group.
(§4) The High-Capacity cDNA Reverse Transcription Kit (Applied Biosystems) was used for reverse transcription of total RNA into single stranded cDNA with the aid of random hexamer primers according to the manufacturer's instructions. Briefly, for the reaction mix total RNA was mixed with random primers in excess, 4 mM dNTP Mix, 2.5 U/reaction, reverse transcriptase and nuclease free water. The reverse transcription took place in a thermal cycler under the following conditions: 25° C. for 10 min, 37° C. for 120 min, 85° C. for 5 min, followed by 4° C. for cooling down the reaction. The reverse transcription can be done in principle as well with other reverse transcriptases, primers and temperature protocols. Whenever possible, 250 ng total RNA were reverse transcribed if not available, lower amounts were used.
(§5) Custom TaqMan® Arrays (Applied Biosystems) in Format 16 were designed for the gene expression analysis of biomarkers of the present invention and housekeeping genes as outlined in table 4. These arrays allow for qPCR analysis of 8 samples per card. Of course, all reactions can be done as well by conventional qPCR analysis with specific primers.

A further assay concerns CCDC43. The assay is described as above. In kind it is cell-based, human. The conditions noted are these: standardized to 0 h. How it is done:
as §1, §2, §3, §4, §5

The subject of the next assay is DPP3. The assay is described as above. In kind it is cell-based, human. The following applies: standardized to 0 h. How it is done:
as §1, §2, §3, §4, §5

A further assay has as its system GAPDH. The description is as above. The conditions noted are these: standardized to 0 h. In kind it is cell-based, human. How it is done: as §1, §2, §3, §4, §5
The next assay has as its system HIST2H4A/B. The description is as above. In kind it is cell-based, human. The following applies: standardized to 0 h. On the procedure: as §1, §2, §3, §4, §5
For another assay, the system named is KDELC2. The description is as above. The assay is classed as cell-based, human. The following applies: standardized to 0 h. How it is done:
as §1, §2, §3, §4, §5

In the next assay the test system is MICALL1. Described as above. In kind it is cell-based, human. The conditions noted are these: standardized to 0 h. How it is done:
as §1, §2, §3, §4, §5

For the next assay, the system named is TBP. The assay is described as above. The conditions noted are these: standardized to 0 h. In kind it is cell-based, human. On the procedure: as §1, §2, §3, §4, §5
In a further assay the test system is ZFP64. The description is as above. The following applies: standardized to 0 h. The assay is classed as cell-based, human. How it is done:
as §1, §2, §3, §4, §5

As for `CN(C)Cc1ccc(S(=O)(=O)n2ccc(/C=C/C(=O)NO)c2)cc1` [resminostat, (E)-3-(1-(4-((dimethylamino)methyl)phenylsulfonyl)-1H-pyrrol-3-yl)-N-hydroxyacrylamide], the “Inhibition of HDAC enzyme activity (median)” value in the assay with HDAC (2 h post-dose, both dose groups (600 mg, 800 mg), vs pre-dose) is at most 93%. For the same compound, the “Inhibition of HDAC enzyme activity” value with HDAC (day 8, 800 mg dose group, wide range of individual values) is listed as “up to 41%”. The “Expression level, 18s (housekeeping gene)” value is listed as 0.83 in the assay with 18S (2 h) and 0.66 with 18S (5 h). In addition, the “Expression level, CCDC43” value with CCDC43 (2 h) came out at 0.29; in the assay with CCDC43 (5 h), 0.35. The “Expression level, DPP3” value was found to be 0.57 in the assay with DPP3 (2 h) and 0.29 with DPP3 (5 h). Further, the “Expression level, GAPDH (housekeeping gene)” value is 1.16 in the assay with GAPDH (2 h) and 1.38 in the assay on GAPDH (5 h). The “Expression level, HIST2H4A/B” value is reported as 2.59 in the assay on HIST2H4A/B (2 h) and 4.11 in the assay with HIST2H4A/B (5 h). In addition, the results for the “Expression level, KDELC2” value with KDELC2 (2 h) and in the assay with KDELC2 (5 h) were 0.47 and 0.07, respectively. Further, the “Expression level, MICALL1” value in the assay on MICALL1 (2 h) stood at 0.30; in the assay with MICALL1 (5 h), 0.10. For the same compound, the “Expression level, TBP (housekeeping gene)” value is on record as 1.03 in the assay on TBP (2 h) and 1.11 in the assay with TBP (5 h). In addition, the “Expression level, ZFP64” value in the assay with ZFP64 (2 h) is on record as 0.24; in the assay with ZFP64 (5 h), 0.15.
